ChEMBL document CHEMBL1201862, “PubChem BioAssay data set” (2004)
Active and inactive are the calls of the source. Cut-off read from the data, not from the text of the source: actives have a measured IC50 and inactives only a lower limit.

Molecular target: Envelope glycoprotein gp160 (Human immunodeficiency virus 1, UniProt Q6QLK5)
Test: cell-free HIV fusion peptide-binding blockers – biochemical, uHTS, fluorescence dequenching, […] (AID 1986)

Sequence of Envelope glycoprotein gp160 (Q6QLK5 whole entry, the tested form may be a part): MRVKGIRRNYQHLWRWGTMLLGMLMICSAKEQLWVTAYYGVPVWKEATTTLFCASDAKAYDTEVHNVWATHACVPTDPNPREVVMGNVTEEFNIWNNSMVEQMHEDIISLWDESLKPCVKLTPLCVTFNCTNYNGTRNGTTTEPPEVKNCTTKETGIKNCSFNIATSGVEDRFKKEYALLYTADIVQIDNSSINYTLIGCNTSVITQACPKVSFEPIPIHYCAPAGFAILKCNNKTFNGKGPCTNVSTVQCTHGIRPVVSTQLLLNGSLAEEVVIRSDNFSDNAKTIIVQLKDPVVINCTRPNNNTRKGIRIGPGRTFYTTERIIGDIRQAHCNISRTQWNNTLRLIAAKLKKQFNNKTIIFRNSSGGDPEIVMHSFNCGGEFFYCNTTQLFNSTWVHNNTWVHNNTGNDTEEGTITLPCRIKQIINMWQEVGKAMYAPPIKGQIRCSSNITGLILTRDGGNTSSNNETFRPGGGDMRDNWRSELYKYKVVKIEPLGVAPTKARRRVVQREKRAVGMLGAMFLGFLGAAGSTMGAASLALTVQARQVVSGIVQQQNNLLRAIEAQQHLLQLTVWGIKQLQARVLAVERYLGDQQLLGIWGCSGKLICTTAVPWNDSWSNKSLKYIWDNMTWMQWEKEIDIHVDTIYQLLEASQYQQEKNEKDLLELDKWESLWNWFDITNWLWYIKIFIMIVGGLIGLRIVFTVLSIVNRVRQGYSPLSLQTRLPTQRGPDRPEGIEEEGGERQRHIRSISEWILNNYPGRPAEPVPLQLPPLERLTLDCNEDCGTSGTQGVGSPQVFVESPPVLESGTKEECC

Question: With Cc1cc(Cl)ccc1OC(C)C(=O)Nc1ccc(S(=O)(=O)Nc2cnc3ccccc3n2)cc1 (stereo unspecified) as the compound, how does the IC50 read?
Answer: 21.3 µM (active)
